Biological target: Mitogen-activated protein kinase 1 (Homo sapiens, UniProt P28482)
Experiment: Enzymatic Assay: Compounds were tested in an enzymatic assay using human ERK-2 (Mitogen Activated Kinase 1), recombinantly expressed as an n-terminal 6-His fusion protein in E. coli and corresponding to a 8-360. The substrate used was the fluorescent Omnia peptide S/T17 (Invitrogen of Carlsbad, Calif.; Cat. KNZ1171C). Test compounds were diluted in DMSO in 3-fold serial dilutions at 100× final concentrations. […] The assay was run at ambient temperature in a white 384-well polypropylene plate (Nunc, Inc of Naperville, Ill.; Cat. 267462) collecting data every 50 seconds for approximately 30 minutes on an Envision plate reader (PerkinElmer, Inc. of Waltham, Mass.); Excitation 340 nm/Emission 495 nm.

Sequence of Mitogen-activated protein kinase 1 (P28482 whole entry, the tested form may be a part): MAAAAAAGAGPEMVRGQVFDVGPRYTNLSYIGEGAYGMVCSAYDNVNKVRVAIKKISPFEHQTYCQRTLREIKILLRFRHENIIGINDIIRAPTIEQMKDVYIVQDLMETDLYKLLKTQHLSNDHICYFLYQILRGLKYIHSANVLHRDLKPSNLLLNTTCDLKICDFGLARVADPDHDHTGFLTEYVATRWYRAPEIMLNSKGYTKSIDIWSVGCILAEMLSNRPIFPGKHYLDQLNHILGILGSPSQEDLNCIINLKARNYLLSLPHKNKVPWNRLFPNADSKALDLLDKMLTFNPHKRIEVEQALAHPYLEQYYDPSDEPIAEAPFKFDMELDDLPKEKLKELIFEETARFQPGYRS

Work on Cn1nccc1Nc1cc2nc(C(=O)N[C@H](CO)c3ccc(Cl)c(F)c3)ccc2cn1 yielded an IC50 of 0.748 nM.

Source: ChEMBL document CHEMBL3886802, “Serine/threonine kinase inhibitors” (2016)
